One assay concerns the target D(2) dopamine receptor (Homo sapiens, UniProt P14416). Kind of assay: Binding affinity to dopamine D2 receptor (unknown origin) by radioligand binding assay.
The target of assay [1] is T1, Adrenergic receptor alpha-1 (Homo sapiens, UniProt P35348+P25100+P35368).
T1 sequence (P35348 whole entry): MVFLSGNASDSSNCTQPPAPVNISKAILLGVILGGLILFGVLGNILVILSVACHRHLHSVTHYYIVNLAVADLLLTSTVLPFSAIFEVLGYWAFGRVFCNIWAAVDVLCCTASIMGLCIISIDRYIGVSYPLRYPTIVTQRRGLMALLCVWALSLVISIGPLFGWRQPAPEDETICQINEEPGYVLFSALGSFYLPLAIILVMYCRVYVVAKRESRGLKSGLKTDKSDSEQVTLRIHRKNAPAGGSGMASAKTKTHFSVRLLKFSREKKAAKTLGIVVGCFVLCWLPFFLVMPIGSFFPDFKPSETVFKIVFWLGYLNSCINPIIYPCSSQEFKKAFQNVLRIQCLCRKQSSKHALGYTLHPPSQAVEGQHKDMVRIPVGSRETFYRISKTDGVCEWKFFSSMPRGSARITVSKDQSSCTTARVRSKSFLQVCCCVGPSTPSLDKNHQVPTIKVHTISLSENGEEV
T1 sequence (P25100 whole entry): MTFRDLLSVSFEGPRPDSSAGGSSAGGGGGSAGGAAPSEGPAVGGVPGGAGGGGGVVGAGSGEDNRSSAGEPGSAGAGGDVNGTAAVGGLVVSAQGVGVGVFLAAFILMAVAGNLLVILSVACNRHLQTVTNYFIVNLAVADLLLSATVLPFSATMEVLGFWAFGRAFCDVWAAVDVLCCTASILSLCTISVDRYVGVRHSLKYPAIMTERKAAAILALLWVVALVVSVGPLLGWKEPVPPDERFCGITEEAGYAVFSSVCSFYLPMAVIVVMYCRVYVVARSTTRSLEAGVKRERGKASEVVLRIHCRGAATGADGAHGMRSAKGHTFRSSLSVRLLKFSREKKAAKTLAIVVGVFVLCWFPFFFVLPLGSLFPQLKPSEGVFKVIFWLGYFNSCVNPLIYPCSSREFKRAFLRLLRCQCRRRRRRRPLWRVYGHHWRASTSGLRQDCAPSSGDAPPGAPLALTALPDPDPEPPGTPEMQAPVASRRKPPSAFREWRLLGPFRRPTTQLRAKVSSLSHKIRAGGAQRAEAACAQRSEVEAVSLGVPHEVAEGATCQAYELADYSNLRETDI
T1 sequence (P35368 whole entry): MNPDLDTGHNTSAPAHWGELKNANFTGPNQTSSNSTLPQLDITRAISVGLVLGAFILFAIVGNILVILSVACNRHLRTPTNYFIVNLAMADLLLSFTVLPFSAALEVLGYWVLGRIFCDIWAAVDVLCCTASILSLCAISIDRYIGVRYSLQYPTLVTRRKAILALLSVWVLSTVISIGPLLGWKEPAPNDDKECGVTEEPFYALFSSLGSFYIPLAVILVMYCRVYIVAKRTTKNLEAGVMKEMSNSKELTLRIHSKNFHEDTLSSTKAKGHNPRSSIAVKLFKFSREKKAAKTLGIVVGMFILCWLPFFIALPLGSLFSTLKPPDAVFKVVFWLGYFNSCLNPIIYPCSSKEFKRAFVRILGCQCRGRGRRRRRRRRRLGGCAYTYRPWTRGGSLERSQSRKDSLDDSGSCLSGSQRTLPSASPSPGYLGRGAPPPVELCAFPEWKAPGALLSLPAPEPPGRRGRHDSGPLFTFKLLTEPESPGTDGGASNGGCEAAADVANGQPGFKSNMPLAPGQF
Kind of assay: Binding affinity to adrenergic alpha1 receptor (unknown origin) by radioligand binding assay.

Assay [2] addresses 5-hydroxytryptamine receptor 7 (Homo sapiens, UniProt P34969). As to the kind of experiment: Binding affinity to 5HT7 receptor (unknown origin) by radioligand binding assay.

The values that follow come from ChEMBL document CHEMBL3085767, “Polypharmacology - foe or friend?” (J Med Chem, 2013).

D(2) dopamine receptor, sequence (P14416 whole entry): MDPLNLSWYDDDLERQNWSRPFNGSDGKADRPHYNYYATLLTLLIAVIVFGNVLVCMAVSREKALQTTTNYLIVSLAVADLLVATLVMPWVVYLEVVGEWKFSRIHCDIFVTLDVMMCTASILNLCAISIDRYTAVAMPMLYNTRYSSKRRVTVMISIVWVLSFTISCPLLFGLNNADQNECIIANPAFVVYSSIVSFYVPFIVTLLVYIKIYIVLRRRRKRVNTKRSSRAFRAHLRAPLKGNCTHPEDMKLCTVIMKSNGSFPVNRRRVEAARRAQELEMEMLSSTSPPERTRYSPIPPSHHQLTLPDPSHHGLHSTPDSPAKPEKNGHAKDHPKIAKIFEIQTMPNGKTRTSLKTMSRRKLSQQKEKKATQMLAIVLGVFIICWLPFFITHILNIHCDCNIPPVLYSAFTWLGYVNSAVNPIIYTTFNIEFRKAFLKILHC
5-hydroxytryptamine receptor 7, sequence (P34969 whole entry): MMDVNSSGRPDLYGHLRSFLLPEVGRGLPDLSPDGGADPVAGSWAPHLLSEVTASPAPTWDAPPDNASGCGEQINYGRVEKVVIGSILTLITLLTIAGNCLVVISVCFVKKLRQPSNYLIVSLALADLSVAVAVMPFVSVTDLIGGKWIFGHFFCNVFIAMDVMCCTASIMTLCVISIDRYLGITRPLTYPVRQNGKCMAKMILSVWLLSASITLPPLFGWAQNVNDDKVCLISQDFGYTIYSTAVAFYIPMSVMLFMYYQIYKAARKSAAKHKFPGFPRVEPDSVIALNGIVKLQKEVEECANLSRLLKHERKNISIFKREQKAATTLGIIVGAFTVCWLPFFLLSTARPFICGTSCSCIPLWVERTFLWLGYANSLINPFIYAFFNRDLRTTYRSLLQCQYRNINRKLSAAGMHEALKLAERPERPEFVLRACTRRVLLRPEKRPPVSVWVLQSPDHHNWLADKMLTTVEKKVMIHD

In the case of `CN(C)CCCN1c2ccccc2CCc2ccccc21` [IMIPRAMINE], at D(2) dopamine receptor, the concentration for half-maximal inhibition (IC50) is 410 nM.
Turning to `O=C1Cc2cc(CCN3CCN(c4nsc5ccccc45)CC3)c(Cl)cc2N1` [ZIPRASIDONE], the Ki in assay [1] is 11 nM; in assay [2], 6 nM.
`CC(CN1c2ccccc2Sc2ccccc21)N(C)C` (centres undefined) [PROMETHAZINE] yielded an IC50 at D(2) dopamine receptor of 100 nM. That is a sub-micromolar value.
